For orientation: EC50 means the concentration needed to bring the measured effect to its halfway point.

Where only a bound is given, the exact number is not on record here.

For 51 compounds, EC50 results are on record in ChEMBL document CHEMBL3400000, “The discovery of potent agonists for GPR88, an orphan GPCR, for the potential treatment of CNS disorders” (Bioorg Med Chem Lett, 2015).

In the assay the target is G protein-coupled receptor 88 (Homo sapiens, UniProt Q9GZN0). Put plainly: Agonist activity at GPR88 (unknown origin) transfected into cells assessed as cAMP accumulation by HTRF assay. Type of assay: functional. A general note: Cyclic AMP is a second messenger, typically raised through Gs and lowered through Gi signalling.
G protein-coupled receptor 88, sequence (Q9GZN0 whole entry): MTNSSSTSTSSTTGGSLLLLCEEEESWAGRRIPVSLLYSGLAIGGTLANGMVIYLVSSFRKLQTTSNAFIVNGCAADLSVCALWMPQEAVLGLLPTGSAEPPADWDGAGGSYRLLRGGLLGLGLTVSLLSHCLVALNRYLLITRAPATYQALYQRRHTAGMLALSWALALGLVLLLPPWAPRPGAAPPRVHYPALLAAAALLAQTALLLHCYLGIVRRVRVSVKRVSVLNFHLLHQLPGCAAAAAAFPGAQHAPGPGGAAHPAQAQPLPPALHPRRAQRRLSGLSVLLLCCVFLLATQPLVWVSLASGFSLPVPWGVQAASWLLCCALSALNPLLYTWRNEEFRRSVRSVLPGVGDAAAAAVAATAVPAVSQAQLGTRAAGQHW
Take `CC[C@H](C)[C@H](N)CN(C(=O)[C@@H]1C[C@H]1c1ccc(OC)cc1)c1ccc(-c2ccccc2)cc1`: the EC50 is greater than 25000 nM.

With `N[C@H](CN(C(=O)[C@@H]1C[C@H]1c1ccccc1)c1ccc(-c2ccccc2)cc1)c1ccccc1`, the half-maximal effective concentration (EC50) is 4.7 nM.

On to `CC(C)[C@H](N)CN(C(=O)[C@@H]1C[C@H]1c1ccccc1)c1ccc(-c2ccccc2)cc1`, for which the EC50 turned out to be 1.1 nM.

Consider `CO[C@H](C)[C@H](N)CN(C(=O)[C@@H]1C[C@H]1c1ccccc1)c1ccc(-c2ccccc2)cc1`, for which the EC50 is 0.68 nM.

Take `NC1(CN(C(=O)[C@@H]2C[C@H]2c2ccccc2)c2ccc(-c3ccccc3)cc2)CCCC1`: the EC50 came to 0.57 nM.

Turning to `CC(C)(N)CN(C(=O)[C@@H]1C[C@H]1c1ccccc1)c1ccc(-c2ccccc2)cc1`, the 50% effective concentration (EC50) came out at 1.4 nM.

As for `CC(C)(C)[C@H](N)CN(C(=O)[C@@H]1C[C@H]1c1ccccc1)c1ccc(-c2ccccc2)cc1`, the EC50 was 11 nM.

Turning to `O=C([C@@H]1C[C@H]1c1ccccc1)N(CC1CCCNC1)c1ccc(-c2ccccc2)cc1` (stereo partly specified), the concentration for a half-maximal effect (EC50) was 10 nM.

With `CC(C)C[C@H](N)CCN(C(=O)[C@@H]1C[C@H]1c1ccccc1)c1ccc(-c2ccccc2)cc1`, the concentration giving a half-maximal response (EC50) is 3 nM.

Take `CCC(CC)C(N)CCN(C(=O)[C@@H]1C[C@H]1c1ccccc1)c1ccc(-c2ccccc2)cc1` (stereo partly specified): the concentration giving a half-maximal response (EC50) was determined as 2 nM.

`CC(C)CCNCCN(C(=O)[C@@H]1C[C@H]1c1ccccc1)c1ccc(-c2ccccc2)cc1`: the concentration giving a half-maximal response (EC50) was found to be 5.1 nM.

For the compound `CCC(C)CNCCN(C(=O)[C@@H]1C[C@H]1c1ccccc1)c1ccc(-c2ccccc2)cc1` (stereo partly specified), the EC50 stood at 4.7 nM.

As to `O=C([C@@H]1C[C@H]1c1ccccc1)N(CCNCC1CCCCC1)c1ccc(-c2ccccc2)cc1`, the concentration giving a half-maximal response (EC50) amounted to 6.6 nM.

Turning to `O=C([C@@H]1C[C@H]1c1ccccc1)N(CCNCC1CCCC1)c1ccc(-c2ccccc2)cc1`, the EC50 was 2.5 nM.

On to `CC[C@H](C)[C@H](N)CN(C(=O)[C@@H]1C[C@H]1c1ccc(Cl)cc1)c1ccc(-c2ccccc2)cc1`, for which the EC50 came to 4300 nM.

For `CC[C@H](C)[C@H](N)CN(C(=O)[C@@H]1C[C@H]1c1cccc(Cl)c1)c1ccc(-c2ccccc2)cc1`, the concentration for a half-maximal effect (EC50) was 2200 nM.

In the case of `CC[C@H](C)[C@H](N)CN(C(=O)[C@@H]1C[C@H]1c1ccccc1Cl)c1ccc(-c2ccccc2)cc1`, the EC50 was greater than 25000 nM.

On to `CC[C@H](C)[C@H](N)CN(C(=O)[C@@H]1C[C@H]1c1cccc(OC)c1)c1ccc(-c2ccccc2)cc1`, for which the half-maximal effective concentration (EC50) came out at 3000 nM.

Consider `CC[C@H](C)[C@H](N)CN(C(=O)[C@@H]1C[C@H]1c1ccc(F)cc1)c1ccc(-c2ccccc2)cc1`, for which the 50% effective concentration (EC50) was 600 nM.

For the compound `CC[C@H](C)[C@H](N)CN(C(=O)[C@@H]1C[C@H]1c1cccc(F)c1)c1ccc(-c2ccccc2)cc1`, the concentration giving a half-maximal response (EC50) was 560 nM.

In the case of `CC[C@H](C)[C@H](N)CN(C(=O)[C@@H]1C[C@H]1c1ccccc1F)c1ccc(-c2ccccc2)cc1`, the EC50 came out at 650 nM.

`CC[C@H](C)[C@H](N)CN(C(=O)[C@@H]1C[C@H]1c1cccc(C)c1)c1ccc(-c2ccccc2)cc1`: the 50% effective concentration (EC50) is 1200 nM.

In the case of `CC[C@H](C)[C@H](N)CN(C(=O)[C@@H]1C[C@H]1c1ccc(C#N)cc1)c1ccc(-c2ccccc2)cc1`, the EC50 is greater than 25000 nM.

For the compound `CC[C@H](C)[C@H](N)CN(C(=O)[C@@H]1C[C@H]1c1cccc(C#N)c1)c1ccc(-c2ccccc2)cc1`, the EC50 was 1600 nM.

On to `CC[C@H](C)[C@H](N)CN(C(=O)[C@@H]1C[C@H]1C1CCCCC1)c1ccc(-c2ccccc2)cc1`, for which the EC50 was greater than 25000 nM.

Take `CC[C@H](C)[C@H](N)CN(C(=O)[C@@H]1C[C@H]1c1cc(F)ccc1F)c1ccc(-c2ccccc2)cc1`: the EC50 was 770 nM.

For `CC[C@H](C)[C@H](N)CN(C(=O)[C@@H]1C[C@H]1c1cc(F)cc(F)c1)c1ccc(-c2ccccc2)cc1`, the EC50 was 960 nM.

As to `CC[C@H](C)[C@H](N)CN(C(=O)[C@@H]1C[C@H]1c1ccc(F)c(F)c1)c1ccc(-c2ccccc2)cc1`, the EC50 amounted to 720 nM.

In the case of `CC[C@H](C)[C@H](N)CN(C(=O)[C@@H]1C[C@H]1c1ccc(F)cc1F)c1ccc(-c2ccccc2)cc1`, the 50% effective concentration (EC50) came out at 1300 nM.

On to `CC[C@H](C)[C@H](N)CN(C(=O)[C@@H]1C[C@H]1c1c(F)cccc1F)c1ccc(-c2ccccc2)cc1`, for which the EC50 stood at 11000 nM.

With `CC[C@H](C)[C@H](N)CN(C(=O)[C@@H]1C[C@H]1c1ccccn1)c1ccc(-c2ccccc2)cc1`, the 50% effective concentration (EC50) is 130 nM.

`CC[C@H](C)[C@H](N)CN(C(=O)[C@@H]1C[C@H]1c1cccnc1)c1ccc(-c2ccccc2)cc1`: the EC50 came to 1500 nM.

For the compound `CC[C@H](C)[C@H](N)CN(C(=O)[C@@H]1C[C@H]1c1ccncc1)c1ccc(-c2ccccc2)cc1`, the EC50 turned out to be 1500 nM.

Regarding `CC[C@H](C)[C@H](N)CN(C(=O)[C@@H]1C[C@H]1c1ncccn1)c1ccc(-c2ccccc2)cc1`, the 50% effective concentration (EC50) worked out at 130 nM.

As to `CC[C@H](C)[C@H](N)CN(C(=O)[C@@H]1C[C@H]1c1cncnc1)c1ccc(-c2ccccc2)cc1`, the EC50 amounted to 19000 nM.

Consider `CC[C@H](C)[C@H](N)CN(C(=O)[C@@H]1C[C@H]1c1nccs1)c1ccc(-c2ccccc2)cc1`, for which the 50% effective concentration (EC50) was determined as 210 nM.

Consider `CC[C@H](C)[C@H](N)CN(C(=O)[C@@H]1C[C@H]1c1cccs1)c1ccc(-c2ccccc2)cc1`, for which the concentration giving a half-maximal response (EC50) stood at 360 nM.

Take `CC[C@H](C)[C@H](N)CN(C(=O)[C@@H]1C[C@H]1c1ccsc1)c1ccc(-c2ccccc2)cc1`: the EC50 stood at 450 nM.

For the compound `CC[C@H](C)[C@H](N)CN(C(=O)[C@@H]1C[C@H]1c1ccoc1)c1ccc(-c2ccccc2)cc1`, the EC50 is 580 nM.

In the case of `CC[C@H](C)[C@H](N)CN(C(=O)[C@@H]1C[C@H]1c1nc(C)cs1)c1ccc(-c2ccccc2)cc1`, the concentration for a half-maximal effect (EC50) was determined as 730 nM.

Consider `CC[C@H](C)[C@H](N)CN(C(=O)[C@@H]1C[C@H]1c1ncc(C)s1)c1ccc(-c2ccccc2)cc1`, for which the EC50 was found to be 1300 nM.

As for `CC(C)C[C@H](N)CN(C(=O)C(C)Cc1ccccc1)c1ccc(-c2ccccc2)cc1` (stereo partly specified), the EC50 turned out to be 1.2 nM.

As for `CC(C)CCCN(C(=O)[C@@H]1C[C@H]1c1ccccc1)c1ccc(-c2ccccc2)cc1`, the EC50 is greater than 100 nM.

In the case of `CC(C)C[C@@H](N)CN(C(=O)[C@@H]1C[C@H]1c1ccccc1)c1ccc(-c2ccccc2)cc1`, the EC50 amounted to 1.8 nM.

`CN[C@@H](CC(C)C)CN(C(=O)[C@@H]1C[C@H]1c1ccccc1)c1ccc(-c2ccccc2)cc1`: the 50% effective concentration (EC50) stood at 2 nM.

As to `CC[C@H](C)[C@@H](CN(C(=O)[C@@H]1C[C@H]1c1ccccc1)c1ccc(-c2ccccc2)cc1)NC(C)=O`, the half-maximal effective concentration (EC50) was determined as 5.8 nM.

As for `CC[C@@H](C)[C@H](N)CN(C(=O)[C@@H]1C[C@H]1c1ccccc1)c1ccc(-c2ccccc2)cc1`, the half-maximal effective concentration (EC50) is 1.4 nM.

In the case of `N[C@@H](CC1CCCCC1)CN(C(=O)[C@@H]1C[C@H]1c1ccccc1)c1ccc(-c2ccccc2)cc1`, the EC50 is 1.7 nM.

Turning to `N[C@H](CN(C(=O)[C@@H]1C[C@H]1c1ccccc1)c1ccc(-c2ccccc2)cc1)C1CCCCC1`, the EC50 worked out at 0.66 nM.

Turning to `CC[C@H](C)[C@H](N)CN(C(=O)[C@@H]1C[C@H]1c1ccccc1)c1ccc(-c2ccccc2)cc1` (racemic), the EC50 was 800 nM.

As to `CC(C)C[C@H](N)CN(C(=O)[C@@H]1C[C@H]1c1ccccc1)c1ccc(-c2ccccc2)cc1` (racemic), the EC50 is 880 nM.
